One test has as its target T1, CCR-3 (Homo sapiens, UniProt P51677).
T1 construct: expressed in transfected cells; membranes)
T1 sequence (P51677 1-355): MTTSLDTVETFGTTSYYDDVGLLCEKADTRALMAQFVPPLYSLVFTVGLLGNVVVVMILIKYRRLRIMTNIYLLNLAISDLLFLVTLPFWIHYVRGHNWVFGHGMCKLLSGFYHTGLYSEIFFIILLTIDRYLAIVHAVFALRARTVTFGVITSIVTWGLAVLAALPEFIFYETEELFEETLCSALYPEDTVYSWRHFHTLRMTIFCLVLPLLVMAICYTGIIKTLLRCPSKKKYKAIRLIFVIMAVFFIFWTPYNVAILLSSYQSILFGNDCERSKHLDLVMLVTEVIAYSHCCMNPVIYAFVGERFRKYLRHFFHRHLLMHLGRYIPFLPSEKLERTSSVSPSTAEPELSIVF
Kind of test: CCR-3 competition binding SPA ([125I]eotaxin). The following applies: membranes from K562 cells stably expressing CCR-3; 20 pM [125I]eotaxin; mean of at least two experiments; read-out: pIC50 (inhibition of [125I]eotaxin binding) (converted). How it is done: A CCR-3 competition binding SPA (scintillation proximity assay) was used to assess the affinity of novel compounds for CCR-3. Membranes prepared from K562 cells stably expressing CCR-3 (2.5 μg/well) were mixed with 0.25 mg/well wheat-germ agglutinin SPA beads (Amersham) and incubated in binding buffer (HEPES 50 mM, CaCl2 1 mM, MgCl2 5 mM, 0.5% BSA) at 4° C. for 1.5 hr. Following incubation, 20 pM of [^125I] eotaxin (Amersham) and increasing concentrations of compound (1 pM to 30 μM) were added and incubated in a 96 well plate for 2 hr at 22° C. then counted on a Microbeta plate counter. The total assay volume was 100 μl. Competition binding data were analysed by fitting the data with a four parameter logistic equation. Data are presented as the mean pIC50 values (negative logarithm of the concentration of compound which inhibits [^125I]eotaxin binding by 50%) from at least two experiments.

Test [1] concerns the target eosinophils purified from human peripheral blood. Kind of test: Eosinophil chemotaxis assay (eotaxin-induced). Type of test: cell-based. The settings on record: agonist eotaxin at EC80 concentration. How it is done: (b) Eosinophil Chemotaxis Assay.
The compound was evaluated for its inhibitory effect on eosinophil chemotaxis. Eosinophils were purified from human peripheral blood by standard CD16 cell depletion using a Miltenyi cell separation column and a magnetic Super Macs magnet as previously described (Motegi & Kita, 1998; J. Immunology. 161:4340-6). Cells were re-suspended in RPMI 1640/10% FCS solution and incubated with calcein-AM (Molecular Probes) at 37° C. for 30 mins. Following incubation, the eosinophils were centrifuged at 400 g for 5 min and re-suspended in RPMI/FCS at 2.2 million/ml. Cells were then incubated in the presence of increasing concentration of compounds (1 pM to 30 μM) at 37° C. for 30 mins. For control responses cells were incubated with RPMI/FCS only. The agonist eotaxin (an EC80 concentration) was added to the lower chamber of a 96 well chemotaxis plate (5 μm filter. Receptor Technologies). Eosinophils (50 μl of 2 million/ml cells) were added to the top chamber of the filter plate and incubated at 37° C. for 45 mins. Cells remaining on top of the chemotaxis filter were removed and the number of eosinophils which had migrated were quantified by reading the plate on a fluorescent plate reader. Inhibition curves for the effect of compounds on eosinophil chemotaxis were analysed by fitting the data with a four parameter logistic equation. […]

For `CS(=O)(=O)Nc1cccc(CC(=O)NC[C@H]2CN(Cc3ccc(F)c(F)c3)CCO2)c1` [Example 1, N-{[(2S)-4-(3.4-difluorobenzyl)morpholin-2-yl]methyl}-2-{3-[(methylsulfonyl)amino]phenyl}acetamide], the IC50 at CCR-3 is 10 nM. In addition, in test [1], the “fpKi (functional pKi, eosinophil chemotaxis)” value is 8.4.

Values taken from US20060058299A1, “N-2s-4-3,4-difluorobenzyl morpholin-2yl methyl -2-(3-methylsulphonyl amino!phenyl acetamide as ccr3 antagonist for the treatment of inflammatory conditions” (priority 2002, published 2006).
